*1 amine or outer side, *2 acyl side, *3 side chain or, on linkers, in order; H or OH if unused. Where no end group is shown, it is not given here. Side-chain parts run from the residue outwards. The star is where a group is joined. C18 diacid = O=C(O)CCCCCCCCCCCCCCCCC(=O)*; γGlu = O=C(O)[C@H](CCC(=O)[*:2])N[*:1]; AEEA = NCCOCCOCC(=O)O
Key:
PTH1 receptor = biological target: T1, PTH1 receptor (Homo sapiens, UniProt Q03431); test: Luciferase-based reporter gene assay for cAMP detection (HEK293 cells); format: cell-based; conditions: for potency at the PTH receptor: luciferase reporter of cAMP production
T1 construct: expressed in transfected cells; host or cells: HEK293
T1 sequence (Q03431 27-593): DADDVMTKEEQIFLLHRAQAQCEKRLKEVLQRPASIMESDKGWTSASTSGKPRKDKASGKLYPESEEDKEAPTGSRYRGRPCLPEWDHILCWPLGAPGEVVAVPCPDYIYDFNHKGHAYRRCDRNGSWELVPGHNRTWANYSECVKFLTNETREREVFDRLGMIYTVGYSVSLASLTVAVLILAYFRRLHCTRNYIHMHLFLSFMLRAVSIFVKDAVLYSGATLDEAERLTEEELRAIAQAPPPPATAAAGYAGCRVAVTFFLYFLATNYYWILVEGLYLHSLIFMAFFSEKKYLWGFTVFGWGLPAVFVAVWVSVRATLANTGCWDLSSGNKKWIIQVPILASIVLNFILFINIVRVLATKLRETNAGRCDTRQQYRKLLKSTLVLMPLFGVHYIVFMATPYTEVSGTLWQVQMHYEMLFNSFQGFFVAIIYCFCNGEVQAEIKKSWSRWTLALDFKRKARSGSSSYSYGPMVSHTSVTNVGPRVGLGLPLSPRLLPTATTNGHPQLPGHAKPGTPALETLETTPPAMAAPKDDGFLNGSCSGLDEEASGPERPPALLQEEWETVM
Procedure: At the end of the incubation, 50 μL of Steady-Lite Plus (PerkinElmer, Waltham, MA) were added to each well. The plate was shaken briefly, incubated four minutes and light output was measured on an EnSpire Alpha Multi-mode Plate Reader (PerkinElmer, Waltham, MA).

[1] = Cleavage half-life / conversion of PTH prodrugs in PBS pH 7.4, 37° C. by LC-MS; format: physicochemical; conditions: for half-life: PBS buffer, dipeptide cleavage from PTH prodrug, PBS pH 7.4, 37° C., read-out: Half life (converted)
Procedure: The resulting solution was incubated at 37° C. Aliquots were taken at designed time points and analyzed by LC-MS. […] Flow rate of 1 mL/min and a gradient of 10%-80% acetonitrile in water, with 0.1% trifluoroacetic acid over 10 min. […] The concentration of prodrug and drug were determined by their relative peak areas. The […] dissociation rate constant of the prodrug was determined by plotting the logarithm in the concentration of the prodrug at various time points.

In the case of “SVSEIQLAHNLGKHLNSMERVEWLRKKLQDVHK(γE-(miniPEG)2-γE-COC16H32CO2H)-OH (SVSEIQLAHNLGKHLNSMERVEWLRKKLQDVHK([γGlu-AEEA-AEEA-γGlu-C18 diacid])-OH; N-terminus assumed; SMILES CC[C@H](C)[C@H](NC(=O)[C@H](CCC(=O)O)NC(=O)[C@H](CO)NC(=O)[C@@H](NC(=O)[C@@H](N)CO)C(C)C)C(=O)N[C@@H](CCC(N)=O)C(=O)N[C@@H](CC(C)C)C(=O)N[C@@H](C)C(=O)N[C@@H](Cc1c[nH]cn1)C(=O)N[C@@H](CC(N)=O)C(=O)N[C@@H](CC(C)C)C(=O)NCC(=O)N[C@@H](CCCCN)C(=O)N[C@@H](Cc1c[nH]cn1)C(=O)N[C@@H](CC(C)C)C(=O)N[C@@H](CC(N)=O)C(=O)N[C@@H](CO)C(=O)N[C@@H](CCSC)C(=O)N[C@@H](CCC(=O)O)C(=O)N[C@@H](CCCNC(=N)N)C(=O)N[C@H](C(=O)N[C@@H](CCC(=O)O)C(=O)N[C@@H](Cc1c[nH]c2ccccc12)C(=O)N[C@@H](CC(C)C)C(=O)N[C@@H](CCCNC(=N)N)C(=O)N[C@@H](CCCCN)C(=O)N[C@@H](CCCCN)C(=O)N[C@@H](CC(C)C)C(=O)N[C@@H](CCC(N)=O)C(=O)N[C@@H](CC(=O)O)C(=O)N[C@H](C(=O)N[C@@H](Cc1c[nH]cn1)C(=O)N[C@@H](CCCCNC(=O)CC[C@H](NC(=O)COCCOCCNC(=O)COCCOCCNC(=O)CC[C@H](NC(=O)CCCCCCCCCCCCCCCCC(=O)O)C(=O)O)C(=O)O)C(=O)O)C(C)C)C(C)C; listed as Homo sapiens) [SEQ ID NO: 93, PTH(1-33), A8, K33(γE-2xOEG-γE-diacidC18)]”, the “reduction of in vitro potency by alanine substitution at position 8” value (PTH1 receptor) is reported as about 100 fold and the “potency at the PTH receptor” value (PTH1 receptor; FIG. 4) is reported as “decreases PTH activity”.

For `CC[C@H](C)[C@H](NC(=O)[C@H](CCC(=O)O)NC(=O)[C@H](CO)NC(=O)[C@@H](NC(=O)[C@H](CO)NC(=O)[C@@H]1CCCCN1C(=O)[C@@H](N)CCCCNC(=O)CC[C@H](NC(=O)CCCCCCCCCCCCCCCCC(=O)O)C(=O)O)C(C)C)C(=O)N[C@@H](CCC(N)=O)C(=O)N[C@@H](CC(C)C)C(=O)N[C@@H](CCSC)C(=O)N[C@@H](Cc1c[nH]cn1)C(=O)N[C@@H](CC(N)=O)C(=O)N[C@@H](CC(C)C)C(=O)NCC(=O)N[C@@H](CCCCN)C(=O)N[C@@H](Cc1c[nH]cn1)C(=O)N[C@@H](CC(C)C)C(=O)N[C@@H](CC(N)=O)C(=O)N[C@@H](CO)C(=O)N[C@@H](CCSC)C(=O)N[C@@H](CCC(=O)O)C(=O)N[C@@H](CCCNC(=N)N)C(=O)N[C@H](C(=O)N[C@@H](CCC(=O)O)C(=O)N[C@@H](Cc1c[nH]c2ccccc12)C(=O)N[C@@H](CC(C)C)C(=O)N[C@@H](CCCNC(=N)N)C(=O)N[C@@H](CCCCN)C(=O)N[C@@H](CCCCN)C(=O)N[C@@H](CC(C)C)C(=O)N[C@@H](CCC(N)=O)C(=O)N[C@@H](CC(=O)O)C(=O)N[C@H](C(=O)N[C@@H](Cc1c[nH]cn1)C(=O)N[C@@H](CC(N)=O)C(=O)N[C@@H](Cc1ccccc1)C(=O)O)C(C)C)C(C)C` [SEQ ID NO: 54], the half-life [1] was 250 h and the “Half life, fold slower than Sar (vs SEQ ID NO: 52)” value ([1]; comparator SEQ ID NO: 52) was 1.9 slower than Sar.

In the case of `CC[C@H](C)[C@H](NC(=O)[C@H](CCC(=O)O)NC(=O)[C@H](CO)NC(=O)[C@@H](NC(=O)[C@H](CO)NC(=O)CN(C(=O)[C@H](N)CCCCNC(=O)CC[C@H](NC(=O)CCCCCCCCCCCCCCCCC(=O)O)C(=O)O)C(C)C)C(C)C)C(=O)N[C@@H](CCC(N)=O)C(=O)N[C@@H](CC(C)C)C(=O)N[C@@H](CCSC)C(=O)N[C@@H](Cc1c[nH]cn1)C(=O)N[C@@H](CC(N)=O)C(=O)N[C@@H](CC(C)C)C(=O)NCC(=O)N[C@@H](CCCCN)C(=O)N[C@@H](Cc1c[nH]cn1)C(=O)N[C@@H](CC(C)C)C(=O)N[C@@H](CC(N)=O)C(=O)N[C@@H](CO)C(=O)N[C@@H](CCSC)C(=O)N[C@@H](CCC(=O)O)C(=O)N[C@@H](CCCNC(=N)N)C(=O)N[C@H](C(=O)N[C@@H](CCC(=O)O)C(=O)N[C@@H](Cc1c[nH]c2ccccc12)C(=O)N[C@@H](CC(C)C)C(=O)N[C@@H](CCCNC(=N)N)C(=O)N[C@@H](CCCCN)C(=O)N[C@@H](CCCCN)C(=O)N[C@@H](CC(C)C)C(=O)N[C@@H](CCC(N)=O)C(=O)N[C@@H](CC(=O)O)C(=O)N[C@H](C(=O)N[C@@H](Cc1c[nH]cn1)C(=O)N[C@@H](CC(N)=O)C(=O)N[C@@H](Cc1ccccc1)C(=O)O)C(C)C)C(C)C` [SEQ ID NO: 46], the half-life [1] is reported as 47 h and the “Half life, fold faster (vs SEQ ID NO: 45)” value ([1]; comparator SEQ ID NO: 45) is reported as 1.9 faster than Sar.

For `CC[C@H](C)[C@H](NC(=O)[C@H](CCC(=O)O)NC(=O)[C@H](CO)NC(=O)[C@@H](NC(=O)[C@H](CO)NC(=O)[C@H](C)N(C)C(=O)[C@@H](N)CCCCNC(=O)CC[C@H](NC(=O)CCCCCCCCCCCCCCCCC(=O)O)C(=O)O)C(C)C)C(=O)N[C@@H](CCC(N)=O)C(=O)N[C@@H](CC(C)C)C(=O)N[C@@H](CCSC)C(=O)N[C@@H](Cc1c[nH]cn1)C(=O)N[C@@H](CC(N)=O)C(=O)N[C@@H](CC(C)C)C(=O)NCC(=O)N[C@@H](CCCCN)C(=O)N[C@@H](Cc1c[nH]cn1)C(=O)N[C@@H](CC(C)C)C(=O)N[C@@H](CC(N)=O)C(=O)N[C@@H](CO)C(=O)N[C@@H](CCSC)C(=O)N[C@@H](CCC(=O)O)C(=O)N[C@@H](CCCNC(=N)N)C(=O)N[C@H](C(=O)N[C@@H](CCC(=O)O)C(=O)N[C@@H](Cc1c[nH]c2ccccc12)C(=O)N[C@@H](CC(C)C)C(=O)N[C@@H](CCCNC(=N)N)C(=O)N[C@@H](CCCCN)C(=O)N[C@@H](CCCCN)C(=O)N[C@@H](CC(C)C)C(=O)N[C@@H](CCC(N)=O)C(=O)N[C@@H](CC(=O)O)C(=O)N[C@H](C(=O)N[C@@H](Cc1c[nH]cn1)C(=O)N[C@@H](CC(N)=O)C(=O)N[C@@H](Cc1ccccc1)C(=O)O)C(C)C)C(C)C` [SEQ ID NO: 53], the half-life [1] was 71 h and the “Half life, fold faster than Sar (vs SEQ ID NO: 52)” value ([1]; comparator SEQ ID NO: 52) was 1.8 faster than Sar.

With “(dK)K(γE-COC16H32CO2H)GSVSEIQLMHNLGKHLNSMERVEWLRKKLQDVHNF [SEQ ID NO: 10, acylated dipeptide attached to PTH (1-34)]” the “potency at the PTH receptor” value (PTH1 receptor; FIGS. 3A, 3B) was “decreases the potency”.

For `CC[C@H](C)[C@H](NC(=O)[C@H](CCC(=O)O)NC(=O)[C@H](CO)NC(=O)[C@@H](NC(=O)[C@H](CO)NC(=O)CN(C)C(=O)[C@@H](N)CCCCNC(=O)CC[C@H](NC(=O)CCCCCCCCCCCCCCCCC(=O)O)C(=O)O)C(C)C)C(=O)N[C@@H](CCC(N)=O)C(=O)N[C@@H](CC(C)C)C(=O)N[C@@H](CCSC)C(=O)N[C@@H](Cc1c[nH]cn1)C(=O)N[C@@H](CC(N)=O)C(=O)N[C@@H](CC(C)C)C(=O)NCC(=O)N[C@@H](CCCCN)C(=O)N[C@@H](Cc1c[nH]cn1)C(=O)N[C@@H](CC(C)C)C(=O)N[C@@H](CC(N)=O)C(=O)N[C@@H](CO)C(=O)N[C@@H](CCSC)C(=O)N[C@@H](CCC(=O)O)C(=O)N[C@@H](CCCNC(=N)N)C(=O)N[C@H](C(=O)N[C@@H](CCC(=O)O)C(=O)N[C@@H](Cc1c[nH]c2ccccc12)C(=O)N[C@@H](CC(C)C)C(=O)N[C@@H](CCCNC(=N)N)C(=O)N[C@@H](CCCCN)C(=O)N[C@@H](CCCCN)C(=O)N[C@@H](CC(C)C)C(=O)N[C@@H](CCC(N)=O)C(=O)N[C@@H](CC(=O)O)C(=O)N[C@H](C(=O)N[C@@H](Cc1c[nH]cn1)C(=O)N[C@@H](CC(N)=O)C(=O)N[C@@H](Cc1ccccc1)C(=O)O)C(C)C)C(C)C` [SEQ ID NO: 52], the half-life [1] was 130 h and the “Half life, fold slower than dK (vs SEQ ID NO: 45)” value ([1]; comparator SEQ ID NO: 45) was 1.4 slower than dK.

With `CC[C@H](C)[C@H](NC(=O)[C@H](CCC(=O)O)NC(=O)[C@H](CO)NC(=O)[C@@H](NC(=O)[C@H](CO)NC(=O)CN(C(=O)[C@@H](N)CCCCNC(=O)CC[C@H](NC(=O)CCCCCCCCCCCCCCCCC(=O)O)C(=O)O)C(C)C)C(C)C)C(=O)N[C@@H](CCC(N)=O)C(=O)N[C@@H](CC(C)C)C(=O)N[C@@H](CCSC)C(=O)N[C@@H](Cc1c[nH]cn1)C(=O)N[C@@H](CC(N)=O)C(=O)N[C@@H](CC(C)C)C(=O)NCC(=O)N[C@@H](CCCCN)C(=O)N[C@@H](Cc1c[nH]cn1)C(=O)N[C@@H](CC(C)C)C(=O)N[C@@H](CC(N)=O)C(=O)N[C@@H](CO)C(=O)N[C@@H](CCSC)C(=O)N[C@@H](CCC(=O)O)C(=O)N[C@@H](CCCNC(=N)N)C(=O)N[C@H](C(=O)N[C@@H](CCC(=O)O)C(=O)N[C@@H](Cc1c[nH]c2ccccc12)C(=O)N[C@@H](CC(C)C)C(=O)N[C@@H](CCCNC(=N)N)C(=O)N[C@@H](CCCCN)C(=O)N[C@@H](CCCCN)C(=O)N[C@@H](CC(C)C)C(=O)N[C@@H](CCC(N)=O)C(=O)N[C@@H](CC(=O)O)C(=O)N[C@H](C(=O)N[C@@H](Cc1c[nH]cn1)C(=O)N[C@@H](CC(N)=O)C(=O)N[C@@H](Cc1ccccc1)C(=O)O)C(C)C)C(C)C` [SEQ ID NO: 48] the half-life [1] was 67 h, the “Half life, fold slower than dK (vs SEQ ID NO: 46)” value ([1]; comparator SEQ ID NO: 46) was 1.4 slower than dK and the “Half life, fold faster than Sar (vs SEQ ID NO: 52)” value ([1]; comparator SEQ ID NO: 52) was 1.9 faster than Sar.

— patent US20260224716A1, “PTH ANALOGS FOR THE TREATMENT OF HYPOPARATHYROIDISM” (priority 2020, published 2026)
